{
  "source": "ChEMBL document CHEMBL4699582",
  "about": "“Discovery of OATD-01, a First-in-Class Chitinase Inhibitor as Potential New Therapeutics for Idiopathic Pulmonary Fibrosis” (J Med Chem, 2020)",
  "key": {"[1]": {"assay": "Elimination half-life in Balb/c mouse at 3 mg/kg, iv administered as single bolus dose by LC-MS/MS analysis", "type": "ADME, organism-based", "settings": "in vivo, read-out: beta t1/2 (converted); call rule not given here"}, "[2]": {"target": "Solute carrier family 22 member 1 (Homo sapiens, UniProt O15245)", "sequence (O15245 whole entry)": "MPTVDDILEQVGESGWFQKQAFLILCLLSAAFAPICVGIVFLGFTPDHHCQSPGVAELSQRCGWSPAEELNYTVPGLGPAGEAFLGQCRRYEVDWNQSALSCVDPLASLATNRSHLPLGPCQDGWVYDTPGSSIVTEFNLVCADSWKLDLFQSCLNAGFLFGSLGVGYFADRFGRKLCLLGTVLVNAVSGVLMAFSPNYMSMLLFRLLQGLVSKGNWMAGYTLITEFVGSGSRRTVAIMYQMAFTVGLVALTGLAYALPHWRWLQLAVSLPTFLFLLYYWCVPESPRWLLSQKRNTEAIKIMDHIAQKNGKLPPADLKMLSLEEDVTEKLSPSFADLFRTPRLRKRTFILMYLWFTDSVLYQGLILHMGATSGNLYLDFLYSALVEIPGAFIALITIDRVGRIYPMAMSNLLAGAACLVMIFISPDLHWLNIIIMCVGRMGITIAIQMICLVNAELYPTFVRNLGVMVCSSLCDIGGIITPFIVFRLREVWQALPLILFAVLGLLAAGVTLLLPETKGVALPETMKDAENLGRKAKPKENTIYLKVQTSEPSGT", "assay": "Inhibition of OCT1 (unknown origin) at 1 to 10 uM", "settings": "dose 1-10 µM"}, "[3]": {"assay": "Tmax in Beagle dog at 10 mg/kg, po administered as single dose by LC-MS/MS analysis", "type": "ADME, organism-based, Canis lupus familiaris", "settings": "in vivo"}, "[4]": {"assay": "Dose normalized AUC (0 to 24 hrs) in Sprague-Dawley rat at 2 mg/kg, iv administered as single bolus dose by LC-MS/MS analysis", "type": "ADME, organism-based", "settings": "in vivo"}, "Cytochrome P450 2D6": {"target": "Cytochrome P450 2D6 (Homo sapiens, UniProt P10635)", "assay": "Inhibition of CYP2D6 (unknown origin)", "type": "ADME"}, "[5]": {"assay": "Clearance (0 to infinity) in Balb/c mouse at 3 mg/kg, iv administered as single bolus dose by LC-MS/MS analysis", "type": "ADME, organism-based", "settings": "in vivo"}, "[6]": {"assay": "Drug uptake in C57BL/6N mouse plasma at 30 mg/kg, po qd administered via gavage measured 24 hrs post dose", "type": "ADME, organism-based", "settings": "in vivo"}, "[7]": {"assay": "Elimination half-life in Beagle dog at 3 mg/kg, iv administered as single bolus dose by LC-MS/MS analysis", "type": "ADME, organism-based, Canis lupus familiaris", "settings": "in vivo, read-out: beta t1/2 (converted)"}, "[8]": {"target": "Hepatic sodium/bile acid cotransporter (Homo sapiens, UniProt Q14973)", "sequence (Q14973 whole entry)": "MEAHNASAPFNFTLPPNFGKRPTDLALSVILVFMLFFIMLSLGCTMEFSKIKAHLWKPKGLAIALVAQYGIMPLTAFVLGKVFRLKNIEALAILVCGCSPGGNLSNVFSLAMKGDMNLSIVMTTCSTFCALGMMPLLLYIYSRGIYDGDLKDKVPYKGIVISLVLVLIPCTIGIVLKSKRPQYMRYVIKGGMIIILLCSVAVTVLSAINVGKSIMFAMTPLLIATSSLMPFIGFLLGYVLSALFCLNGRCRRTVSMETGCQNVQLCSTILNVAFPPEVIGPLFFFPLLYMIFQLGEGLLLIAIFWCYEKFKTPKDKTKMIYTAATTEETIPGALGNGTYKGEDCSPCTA", "assay": "Inhibition of NTCP (unknown origin) at 1 to 10 uM", "settings": "dose 1-10 µM"}, "[9]": {"target": "Solute carrier organic anion transporter family member 1B1 (Homo sapiens, UniProt Q9Y6L6)", "assay": "Inhibition of OATP1B1 (unknown origin) at 1 to 10 uM", "settings": "dose 1-10 µM"}, "[10]": {"assay": "AUC (0 to 24 hrs) in Beagle dog at 10 mg/kg, po administered as single dose by LC-MS/MS analysis", "type": "ADME, organism-based, Canis lupus familiaris", "design": "time < 24 hr, route oral, dose 10 mg/kg", "settings": "in vivo"}, "[11]": {"target": "Voltage-gated inwardly rectifying potassium channel KCNH2 (Homo sapiens, UniProt Q12809)", "sequence (Q12809 whole entry)": "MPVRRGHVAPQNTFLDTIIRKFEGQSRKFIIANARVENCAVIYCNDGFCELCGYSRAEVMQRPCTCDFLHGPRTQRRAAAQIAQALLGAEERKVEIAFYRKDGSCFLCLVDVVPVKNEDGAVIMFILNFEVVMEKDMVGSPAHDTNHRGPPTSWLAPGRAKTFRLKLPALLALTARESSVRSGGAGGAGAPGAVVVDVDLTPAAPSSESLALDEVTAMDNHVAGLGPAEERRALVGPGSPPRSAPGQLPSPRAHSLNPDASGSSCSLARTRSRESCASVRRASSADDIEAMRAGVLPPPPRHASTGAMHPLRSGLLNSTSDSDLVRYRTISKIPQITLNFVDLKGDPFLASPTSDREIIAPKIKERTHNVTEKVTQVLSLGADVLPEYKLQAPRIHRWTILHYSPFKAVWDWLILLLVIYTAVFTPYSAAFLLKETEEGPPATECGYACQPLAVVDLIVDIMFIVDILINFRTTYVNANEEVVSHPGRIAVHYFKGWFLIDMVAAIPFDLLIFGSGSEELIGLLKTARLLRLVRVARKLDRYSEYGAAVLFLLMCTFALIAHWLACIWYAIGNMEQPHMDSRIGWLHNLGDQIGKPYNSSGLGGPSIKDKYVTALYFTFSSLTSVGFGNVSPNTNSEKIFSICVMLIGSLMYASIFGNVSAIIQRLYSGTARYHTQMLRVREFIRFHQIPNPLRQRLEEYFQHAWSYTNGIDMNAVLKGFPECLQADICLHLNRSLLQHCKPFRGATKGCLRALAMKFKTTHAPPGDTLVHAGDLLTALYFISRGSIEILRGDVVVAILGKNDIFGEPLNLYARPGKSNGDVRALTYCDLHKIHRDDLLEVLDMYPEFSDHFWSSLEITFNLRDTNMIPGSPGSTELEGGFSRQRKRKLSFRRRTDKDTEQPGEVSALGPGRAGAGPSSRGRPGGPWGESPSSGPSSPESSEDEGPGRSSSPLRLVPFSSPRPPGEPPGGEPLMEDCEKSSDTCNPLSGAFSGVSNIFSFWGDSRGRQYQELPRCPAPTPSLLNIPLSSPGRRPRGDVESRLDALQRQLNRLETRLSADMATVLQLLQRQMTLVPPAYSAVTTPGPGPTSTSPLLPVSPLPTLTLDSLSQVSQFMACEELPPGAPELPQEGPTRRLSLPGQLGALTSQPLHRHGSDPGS", "assay": "Inhibition of tracer red binding to human ERG expressed in HEK293 cell membranes measured after 2 to 6 hrs by fluorescence polarization assay"}, "Chitotriosidase-1": {"target": "Chitotriosidase-1 (Mus musculus, UniProt Q9D7Q1)", "sequence (Q9D7Q1 whole entry)": "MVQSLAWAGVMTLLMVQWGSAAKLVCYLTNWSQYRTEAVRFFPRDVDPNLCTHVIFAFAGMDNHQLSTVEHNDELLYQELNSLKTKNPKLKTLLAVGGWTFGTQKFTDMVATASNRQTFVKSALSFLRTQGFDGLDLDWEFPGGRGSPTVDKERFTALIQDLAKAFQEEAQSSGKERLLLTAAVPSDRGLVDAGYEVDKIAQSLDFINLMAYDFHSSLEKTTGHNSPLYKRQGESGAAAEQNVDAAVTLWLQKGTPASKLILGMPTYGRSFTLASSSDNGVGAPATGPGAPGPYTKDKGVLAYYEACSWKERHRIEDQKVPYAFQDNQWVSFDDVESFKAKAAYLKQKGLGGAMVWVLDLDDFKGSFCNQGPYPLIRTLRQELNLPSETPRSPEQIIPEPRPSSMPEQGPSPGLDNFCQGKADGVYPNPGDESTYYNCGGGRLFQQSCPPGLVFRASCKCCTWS", "assay": "biochemical", "description": "Inhibition of recombinant full-length C-terminal his-tagged mouse CHIT1 expressed in CHO-K1 cells assessed as reduction in chitinolytic activity using 4-methylumbelliferyl-beta-D-N,N',N\"-triacetylchitotrioside as substrate after 60 mins by fluorometric assay"}, "[12]": {"target": "Solute carrier family 22 member 2 (Homo sapiens, UniProt O15244)", "assay": "Inhibition of OCT2 (unknown origin) at 1 to 10 uM"}, "[13]": {"assay": "Oral bioavailability in Balb/c mouse at 10 mg/kg, administered as single dose by LC-MS/MS analysis", "type": "ADME, organism-based", "settings": "in vivo"}, "[14]": {"assay": "Cmax in Beagle dog at 10 mg/kg, po administered as single dose by LC-MS/MS analysis", "type": "ADME, organism-based, Canis lupus familiaris", "design": "route oral, dose 10 mg/kg", "settings": "in vivo"}, "[15]": {"assay": "Initial plasma concentration in Balb/c mouse at 3 mg/kg, iv administered as single bolus dose by LC-MS/MS analysis", "type": "ADME, organism-based"}, "[16]": {"assay": "Cmax in Beagle dog at 3 mg/kg, iv administered as single bolus dose by LC-MS/MS analysis", "type": "ADME, organism-based, Canis lupus familiaris", "design": "route intravenous, dose 3 mg/kg", "settings": "in vivo"}, "[17]": {"target": "ATP-binding cassette sub-family C member 2 (Homo sapiens, UniProt Q92887)", "sequence (Q92887 whole entry)": "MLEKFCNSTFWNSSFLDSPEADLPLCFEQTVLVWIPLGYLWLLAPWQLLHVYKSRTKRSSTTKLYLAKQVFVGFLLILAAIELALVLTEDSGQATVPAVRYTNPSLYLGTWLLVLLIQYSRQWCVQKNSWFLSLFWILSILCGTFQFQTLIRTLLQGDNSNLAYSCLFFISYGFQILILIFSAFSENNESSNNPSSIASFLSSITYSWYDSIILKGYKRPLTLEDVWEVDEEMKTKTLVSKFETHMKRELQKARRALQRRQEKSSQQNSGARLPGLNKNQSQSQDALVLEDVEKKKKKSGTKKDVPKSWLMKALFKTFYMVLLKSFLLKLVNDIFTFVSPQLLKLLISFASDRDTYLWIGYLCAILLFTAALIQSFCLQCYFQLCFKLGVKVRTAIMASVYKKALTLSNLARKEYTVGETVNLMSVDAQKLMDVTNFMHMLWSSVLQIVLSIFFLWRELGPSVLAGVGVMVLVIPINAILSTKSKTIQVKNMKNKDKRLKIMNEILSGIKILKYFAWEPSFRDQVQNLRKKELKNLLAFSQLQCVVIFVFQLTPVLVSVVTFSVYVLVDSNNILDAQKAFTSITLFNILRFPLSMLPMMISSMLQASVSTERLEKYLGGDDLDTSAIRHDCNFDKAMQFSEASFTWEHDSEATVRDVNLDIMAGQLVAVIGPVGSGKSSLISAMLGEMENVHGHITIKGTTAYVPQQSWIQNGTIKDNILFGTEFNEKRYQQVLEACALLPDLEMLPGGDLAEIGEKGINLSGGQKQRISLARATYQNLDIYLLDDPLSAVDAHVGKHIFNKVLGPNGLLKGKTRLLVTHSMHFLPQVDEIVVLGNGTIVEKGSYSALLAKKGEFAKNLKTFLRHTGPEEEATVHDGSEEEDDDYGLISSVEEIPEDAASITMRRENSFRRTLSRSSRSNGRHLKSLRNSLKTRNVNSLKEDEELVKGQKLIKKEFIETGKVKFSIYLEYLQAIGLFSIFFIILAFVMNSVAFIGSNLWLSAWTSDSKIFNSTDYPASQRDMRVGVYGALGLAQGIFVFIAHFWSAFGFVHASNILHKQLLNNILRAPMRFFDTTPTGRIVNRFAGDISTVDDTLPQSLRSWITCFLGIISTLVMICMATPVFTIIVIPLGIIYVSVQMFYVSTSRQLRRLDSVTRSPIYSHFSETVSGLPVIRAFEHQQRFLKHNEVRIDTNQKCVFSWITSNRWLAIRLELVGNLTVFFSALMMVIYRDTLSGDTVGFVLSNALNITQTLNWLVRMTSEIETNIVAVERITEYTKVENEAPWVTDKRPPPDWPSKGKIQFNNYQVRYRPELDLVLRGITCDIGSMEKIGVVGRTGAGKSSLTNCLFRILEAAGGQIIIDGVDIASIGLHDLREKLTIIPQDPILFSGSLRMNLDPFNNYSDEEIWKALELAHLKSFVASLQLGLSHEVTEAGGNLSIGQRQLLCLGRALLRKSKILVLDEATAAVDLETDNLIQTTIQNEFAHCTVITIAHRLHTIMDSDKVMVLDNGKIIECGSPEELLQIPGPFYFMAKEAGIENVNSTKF", "assay": "Inhibition of MRP2 (unknown origin) at 1 to 10 uM", "settings": "dose 1-10 µM"}, "[18]": {"assay": "Dose normalized Cmax in Sprague-Dawley rat at 6 mg/kg, po administered as single dose by LC-MS/MS analysis", "type": "ADME, organism-based", "settings": "in vivo"}, "[19]": {"assay": "Dose normalized AUC (0 to 24 hrs) in Balb/c mouse at 3 mg/kg, iv administered as single bolus dose by LC-MS/MS analysis", "type": "ADME, organism-based", "settings": "in vivo"}, "[20]": {"assay": "AUC (0 to 24 hrs) in Balb/c mouse at 10 mg/kg, po administered as single dose by LC-MS/MS analysis", "type": "ADME, organism-based", "design": "time < 24 hr, route oral, dose 10 mg/kg", "settings": "in vivo"}, "[21]": {"assay": "Clearance (0 to 24 hrs) in Sprague-Dawley rat at 2 mg/kg, iv administered as single bolus dose by LC-MS/MS analysis", "type": "ADME, organism-based", "settings": "in vivo"}, "[22]": {"assay": "Drug uptake in C57BL/6N mouse lung at 30 mg/kg, po qd administered via gavage measured 24 hrs post dose", "type": "ADME, organism-based", "settings": "in vivo"}, "Cytochrome P450 2C19": {"target": "Cytochrome P450 2C19 (Homo sapiens, UniProt P33261)", "sequence (P33261 whole entry)": "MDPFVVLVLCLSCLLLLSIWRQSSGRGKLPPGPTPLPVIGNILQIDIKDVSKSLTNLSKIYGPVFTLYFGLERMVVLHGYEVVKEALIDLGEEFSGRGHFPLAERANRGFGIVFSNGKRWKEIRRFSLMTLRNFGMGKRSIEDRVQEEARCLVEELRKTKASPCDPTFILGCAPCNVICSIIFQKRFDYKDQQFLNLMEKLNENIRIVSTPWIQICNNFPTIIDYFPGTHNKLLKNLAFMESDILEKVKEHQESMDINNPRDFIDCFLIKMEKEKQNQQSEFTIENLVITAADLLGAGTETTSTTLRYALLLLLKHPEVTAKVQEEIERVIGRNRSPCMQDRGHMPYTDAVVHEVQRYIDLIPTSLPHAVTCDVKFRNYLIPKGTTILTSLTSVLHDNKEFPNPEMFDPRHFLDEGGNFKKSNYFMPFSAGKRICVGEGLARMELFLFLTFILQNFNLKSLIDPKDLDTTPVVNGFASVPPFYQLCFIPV", "assay": "Inhibition of CYP2C19 (unknown origin)", "type": "ADME"}, "[23]": {"target": "Solute carrier family 22 member 6 (Homo sapiens, UniProt Q4U2R8)", "assay": "Inhibition of OAT1 (unknown origin) at 1 to 10 uM", "settings": "dose 1-10 µM"}, "[24]": {"assay": "Dose normalized Cmax in Balb/c mouse at 10 mg/kg, po administered as single dose by LC-MS/MS analysis", "type": "ADME, organism-based", "settings": "in vivo"}, "[25]": {"assay": "AUC (0 to 24 hrs) in Sprague-Dawley rat at 6 mg/kg, po administered as single dose by LC-MS/MS analysis", "type": "ADME, organism-based", "design": "time < 24 hr, route oral, dose 6 mg/kg", "settings": "in vivo"}, "[26]": {"target": "Ileal sodium/bile acid cotransporter (Homo sapiens, UniProt Q12908)", "sequence (Q12908 whole entry)": "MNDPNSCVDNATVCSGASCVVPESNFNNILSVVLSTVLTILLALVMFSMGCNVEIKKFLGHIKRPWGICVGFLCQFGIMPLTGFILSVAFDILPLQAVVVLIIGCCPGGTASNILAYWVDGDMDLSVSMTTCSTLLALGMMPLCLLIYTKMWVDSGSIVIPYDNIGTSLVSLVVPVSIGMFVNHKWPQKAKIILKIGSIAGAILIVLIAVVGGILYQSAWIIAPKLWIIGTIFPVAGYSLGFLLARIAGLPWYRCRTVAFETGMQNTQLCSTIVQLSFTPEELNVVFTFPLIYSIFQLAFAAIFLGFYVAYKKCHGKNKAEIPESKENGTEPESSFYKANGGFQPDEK", "assay": "Inhibition of ASBT (unknown origin) at 1 to 10 uM", "settings": "dose 1-10 µM"}},
  "data": [
    {"smiles": "C[C@H]1CN(C2CCN(c3nc(N)n[nH]3)CC2)[C@@H](Cc2ccc(Cl)cc2)CO1", "note": "[5-(4-((2S,5S)-5-(4-CHLOROBENZYL)-2-METHYLMORPHOLINO)PIPERIDIN-1-YL)-1H-1,2,4-TRIAZOL-3-AMINE]", "values": [
      {"measurement": "half-life", "setting": "[1]", "result": 2.09, "unit": "h"},
      {"measurement": "inhibition (INH)", "setting": "[2]", "result": "Not Active"},
      {"measurement": "Tmax", "setting": "[3]", "result": 0.5, "unit": "h"},
      {"measurement": "AUC/dose", "setting": "[4]", "result": 2.78, "unit": "kg·mg·h/L/mg"},
      {"measurement": "inhibition (INH)", "setting": "Cytochrome P450 2D6", "result": "Not Active"},
      {"measurement": "clearance", "setting": "[5]", "result": 5.83, "unit": "mL/min/kg"},
      {"measurement": "Drug uptake", "setting": "[6]", "result": "Active"},
      {"measurement": "half-life", "setting": "[7]", "result": 21.9, "unit": "h"},
      {"measurement": "inhibition (INH)", "setting": "[8]", "result": "Not Active"},
      {"measurement": "inhibition (INH)", "setting": "[9]", "result": "Not Active"},
      {"measurement": "AUC(0-t) at 24 h", "setting": "[10]", "result": 94100, "unit": "ng·h/mL"},
      {"measurement": "IC50", "setting": "[11]", "result": 23000, "unit": "nM"},
      {"measurement": "IC50", "setting": "Chitotriosidase-1", "result": 28, "unit": "nM"},
      {"measurement": "Ki", "setting": "Chitotriosidase-1", "result": 26, "unit": "nM"},
      {"measurement": "inhibition (INH)", "setting": "[12]", "result": "Not Active"},
      {"measurement": "bioavailability", "setting": "[13]", "result": 77.4, "unit": "%"},
      {"measurement": "Cmax", "setting": "[14]", "result": 7640, "unit": "ng/mL"},
      {"measurement": "C0", "setting": "[15]", "result": 3970, "unit": "ng/mL"},
      {"measurement": "Cmax", "setting": "[16]", "result": 2470, "unit": "ng/mL"},
      {"measurement": "inhibition (INH)", "setting": "[17]", "result": "Not Active"},
      {"measurement": "Cmax/dose", "setting": "[18]", "result": 0.37, "unit": "kg.mg/L.mL"},
      {"measurement": "AUC/dose", "setting": "[19]", "result": 2.87, "unit": "kg·mg·h/L/mg"},
      {"measurement": "AUC(0-t) at 24 h", "setting": "[20]", "result": 22200, "unit": "ng·h/mL"},
      {"measurement": "clearance", "setting": "[21]", "result": 5.67, "unit": "mL/min/kg"},
      {"measurement": "Drug uptake", "setting": "[22]", "result": "Active"},
      {"measurement": "inhibition (INH)", "setting": "Cytochrome P450 2C19", "result": "Not Active"},
      {"measurement": "inhibition (INH)", "setting": "[23]", "result": "Not Active"},
      {"measurement": "Cmax/dose", "setting": "[24]", "result": 0.34, "unit": "kg.mg/L.mL"},
      {"measurement": "AUC(0-t) at 24 h", "setting": "[25]", "result": 20300, "unit": "ng·h/mL"},
      {"measurement": "inhibition (INH)", "setting": "[26]", "result": "Not Active"}
    ]}
  ]
}
